From patent publication US20140199760A1, “PLANTS HAVING ENHANCED ABIOTIC STRESS RESISTANCE” (UNIVERSITY OF TORONTO, priority 2011, published 2014)

Experiments:
[1] = tested on: bean crop; conditions: applied brassinolide; cited from earlier work
[2] = tested on: soybean (OAC Wallace cultivar); assay: Drought treatment of soybean with BRZ added to soil; water loss per final shoot dry weight; type: in vivo
Text: (§1) FIG. 2. (A) Soil water content of wild-type Columbia (red), era1-2 (green), and line cyp85a2 (blue) during a drought treatment. […] Error bars represent standard error (n=8). (B) Water loss during the first 9 days of drought treatment divided by the final shoot dry weight (SDW) in wild-type Columbia, era1-2, and line cyp85a2. Error bars represent standard error (n=6). (C) Cold stress treatment. […]
(§2) Soil (20:20:20), prepared that day, was consistently weighed into pots (typically 140 g) and covered with a plastic wrap (GLAD Press'n Seal® Wrap) that had been punctured with a small hole in the centre. […] This was typically done by withholding water for 9 days after which shoot biomass was harvested and fresh weight was determined. Shoots were then dried at 60 C for 3 days and dry weight was determined. […]
(§3) The observation that a deficiency in endogenous BL in cyp85a2 enables drought resistance to Arabidopsis prompted the hypothesis that a similar mechanism might exist in other plant species, such as corn, soybean, and canola. […] Immediately […] the start of the experiment, daily measurements of water use were monitored to quantify the rate of water loss. […]

[3] = tested on: corn (B73 cultivar); assay: Drought treatment of corn with BRZ added to soil; water loss per final shoot dry weight; type: in vivo
Text: as §1, §2, §3

[4] = tested on: canola (Westar cultivar); assay: Drought treatment of canola with BRZ added to soil; water loss per final shoot dry weight; type: in vivo
[5] = 10 μM final concentration in soil, root uptake, 4 day drought, vs untreated controls

Compound | increase bean crop yield [1] | water use efficiency improved [2, 5] [%] | water loss per unit of shoot weight than that of the untreated controls ([2]; 10 μM final, drought, P<0.05) | water use efficiency improved ([3]; 20 μM final concentration in soil, root uptake, 3.5 day drought, vs untreated controls) [%] | water loss per unit of shoot weight than that of the untreated controls ([3]; 20 μM final, drought, P<0.05) | water use efficiency improved [4, 5] [%] | water loss per unit of shoot weight than that of the untreated controls ([4]; 10 μM final, drought, P<0.05)
CC(C)[C@H](C)[C@@H](O)[C@H](O)[C@@H](C)[C@H]1CC[C@H]2[C@@H]3COC(=O)[C@H]4C[C@H](O)[C@H](O)C[C@]4(C)[C@H]3CC[C@]12C [brassinolide, Brassinolide] | approximately 45% |  |  |  |  |  | 
CC(O)(c1ccccc1)C(Cc1ccc(Cl)cc1)n1cncn1 (stereo not shown) [BRZ, Brassinazole] |  | 14 | significantly less | 28 | significantly less | 15 | significantly less
